Active and inactive are the calls of the source.
What was measured:
L6 [1] = assay: Inhibition of glucose uptake in rat L6 myocyte at 50 uM after 24 hrs; format: functional; details: L6, 24 h, values are per cent of control
L6 [2] = assay: Inhibition of glucose uptake in rat L6 myocyte at 10 ng/ml after 24 hrs; format: functional, cell-based
L6 [3] = assay: Increase in PI3K mRNA expression in rat L6 cells at 10 ng/ml by RT-PCR; format: functional, cell-based
L6 [4] = assay: Increase in GLUT4 mRNA expression in rat L6 cells at 50 uM by RT-PCR; format: functional, cell-based
[5] = target: T1, Insulin receptor substrate 1 (Rattus norvegicus) (UniProt P35570); assay: […] in rat L6 cells after 24 hrs by immunoprecipitation; format: cell-based
T1 sequence (whole entry): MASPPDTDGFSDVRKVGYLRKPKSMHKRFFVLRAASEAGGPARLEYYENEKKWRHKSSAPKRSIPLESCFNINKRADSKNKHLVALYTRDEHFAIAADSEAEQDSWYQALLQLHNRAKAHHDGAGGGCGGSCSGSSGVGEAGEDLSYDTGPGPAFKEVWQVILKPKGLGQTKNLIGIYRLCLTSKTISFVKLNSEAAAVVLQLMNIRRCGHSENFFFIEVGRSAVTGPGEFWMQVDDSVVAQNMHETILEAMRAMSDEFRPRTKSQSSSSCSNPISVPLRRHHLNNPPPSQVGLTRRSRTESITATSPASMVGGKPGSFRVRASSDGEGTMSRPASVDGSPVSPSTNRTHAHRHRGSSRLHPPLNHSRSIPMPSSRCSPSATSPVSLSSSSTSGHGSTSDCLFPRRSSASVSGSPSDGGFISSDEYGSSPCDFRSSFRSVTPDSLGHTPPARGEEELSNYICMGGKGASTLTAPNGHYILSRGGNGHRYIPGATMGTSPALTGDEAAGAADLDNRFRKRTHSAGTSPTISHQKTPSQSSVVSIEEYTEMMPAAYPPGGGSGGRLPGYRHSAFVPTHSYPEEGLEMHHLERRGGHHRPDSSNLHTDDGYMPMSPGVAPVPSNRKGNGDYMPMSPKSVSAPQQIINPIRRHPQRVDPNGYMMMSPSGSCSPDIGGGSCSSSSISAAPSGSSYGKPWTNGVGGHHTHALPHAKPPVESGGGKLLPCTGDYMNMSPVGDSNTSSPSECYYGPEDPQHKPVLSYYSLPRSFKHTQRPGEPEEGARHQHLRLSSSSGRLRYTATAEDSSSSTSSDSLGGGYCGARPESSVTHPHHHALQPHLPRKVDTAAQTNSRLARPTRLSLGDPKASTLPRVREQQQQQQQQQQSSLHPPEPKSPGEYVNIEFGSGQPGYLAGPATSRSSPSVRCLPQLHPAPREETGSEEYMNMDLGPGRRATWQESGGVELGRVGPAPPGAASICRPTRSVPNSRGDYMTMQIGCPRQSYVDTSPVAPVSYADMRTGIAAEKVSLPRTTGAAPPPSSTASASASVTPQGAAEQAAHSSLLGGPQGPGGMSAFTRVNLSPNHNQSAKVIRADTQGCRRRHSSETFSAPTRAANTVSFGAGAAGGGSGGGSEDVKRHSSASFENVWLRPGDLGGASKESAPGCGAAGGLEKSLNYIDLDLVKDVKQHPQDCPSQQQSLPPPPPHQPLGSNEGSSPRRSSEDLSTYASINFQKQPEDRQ

[6] = target: Insulin receptor (Rattus norvegicus) (UniProt P15127); assay: […] in rat L6 cells after 24 hrs by immunoprecipitation; format: cell-based
L6 [7] = assay: Increase in PI3K mRNA expression in rat L6 cells at 100 ng/ml by RT-PCR; format: functional, cell-based

Chain of Insulin receptor (Rattus norvegicus) (P15127 27-759 limits assumed): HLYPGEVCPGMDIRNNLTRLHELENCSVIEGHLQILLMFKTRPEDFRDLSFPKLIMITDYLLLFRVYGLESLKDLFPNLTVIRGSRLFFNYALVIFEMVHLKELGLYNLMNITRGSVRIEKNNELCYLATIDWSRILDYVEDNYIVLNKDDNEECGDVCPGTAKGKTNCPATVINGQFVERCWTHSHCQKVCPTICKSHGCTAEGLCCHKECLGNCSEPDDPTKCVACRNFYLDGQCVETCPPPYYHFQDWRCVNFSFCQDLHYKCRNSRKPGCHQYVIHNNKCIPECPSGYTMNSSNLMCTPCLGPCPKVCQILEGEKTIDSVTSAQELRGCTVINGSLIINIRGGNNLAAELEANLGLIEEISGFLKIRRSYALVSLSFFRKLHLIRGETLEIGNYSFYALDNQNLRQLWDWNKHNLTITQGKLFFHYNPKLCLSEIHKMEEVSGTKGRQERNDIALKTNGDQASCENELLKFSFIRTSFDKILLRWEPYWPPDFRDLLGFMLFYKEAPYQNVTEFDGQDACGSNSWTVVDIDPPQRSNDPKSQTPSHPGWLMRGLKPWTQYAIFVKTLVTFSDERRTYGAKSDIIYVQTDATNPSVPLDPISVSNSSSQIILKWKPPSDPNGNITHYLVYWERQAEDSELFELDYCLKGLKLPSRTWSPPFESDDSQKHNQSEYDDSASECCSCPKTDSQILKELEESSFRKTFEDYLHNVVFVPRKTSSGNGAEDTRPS
Chain of Insulin receptor (Rattus norvegicus) (P15127 764-1383 limits assumed): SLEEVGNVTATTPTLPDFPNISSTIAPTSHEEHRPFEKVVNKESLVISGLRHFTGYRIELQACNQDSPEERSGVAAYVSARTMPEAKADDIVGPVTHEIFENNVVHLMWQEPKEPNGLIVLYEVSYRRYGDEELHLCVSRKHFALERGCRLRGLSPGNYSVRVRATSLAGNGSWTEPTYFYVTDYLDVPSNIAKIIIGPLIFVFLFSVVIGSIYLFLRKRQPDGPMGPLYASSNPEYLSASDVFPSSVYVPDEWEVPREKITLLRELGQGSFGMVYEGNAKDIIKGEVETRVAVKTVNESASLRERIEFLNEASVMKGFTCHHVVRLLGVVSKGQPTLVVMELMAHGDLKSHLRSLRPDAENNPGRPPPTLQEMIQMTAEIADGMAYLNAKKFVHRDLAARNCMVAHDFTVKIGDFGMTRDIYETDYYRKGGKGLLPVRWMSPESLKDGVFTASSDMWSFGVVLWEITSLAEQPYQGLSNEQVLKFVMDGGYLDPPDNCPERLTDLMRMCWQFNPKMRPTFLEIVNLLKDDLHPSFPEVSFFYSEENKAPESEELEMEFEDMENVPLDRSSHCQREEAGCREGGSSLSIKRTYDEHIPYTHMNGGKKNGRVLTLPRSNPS

CN(CCOc1ccc(CC2SC(=O)NC2=O)cc1)c1ccccn1 (stereo unspecified) [ROSIGLITAZONE]
240%: residual activity at 50 µM (L6 [1])

O=C(O)CC(C(=O)O)C1c2c(C(=O)O[C@H]3[C@H](OC(=O)c4cc(O)c(O)c(O)c4)O[C@H](COC(=O)c4cc(O)c(O)c(O)c4)[C@@H](O)[C@H]3OC(=O)c3cc(O)c(O)c(O)c3)cc(O)c(O)c2OC(=O)C1O (stereo partly specified)
active: inhibition (L6 [2]) Dose-dependent effect | Activity (L6 [3]) | Activity (L6 [4]) | inhibition [5] | inhibition [6]

COC(=O)CC(C(=O)O)C1c2c(C(=O)O[C@H]3[C@H](OC(=O)c4cc(O)c(O)c(O)c4)O[C@H](COC(=O)c4cc(O)c(O)c(O)c4)[C@@H](O)[C@H]3OC(=O)c3cc(O)c(O)c(O)c3)cc(O)c(O)c2OC(=O)C1O (stereo partly specified)
active: inhibition (L6 [2]) Dose-dependent effect | Activity (L6 [7]) | Activity (L6 [4]) | inhibition [5] | inhibition [6]

From ChEMBL document CHEMBL1165927, “Insulinomimetic activity of two new gallotannins from the fruits of Capparis moonii” (2010)
